Values quoted from earlier work, collected in patent US6337095B1, “Process for the isolation of compound scopoletin useful as nitric oxide synthesis inhibitor” (Council of Scientific and Industrial Research, priority 2000, dated 2002).

Tested on: murine macrophages
Details: reported in literature (Planta Medica 65:400-403, 1999)

Q: With COc1cc2ccc(=O)oc2cc1O [scopoletin, 7-hydroxy-6-methoxy coumarin] as the compound, how does the “inhibition of nitric oxide (NO) synthesis” value read?
A: The value was “showed inhibition”.
